Assay results reported in article PMC8578629, “Photoactivated cell-killing amino-based flavylium compounds” (Scientific Reports, 2021).

Columns and labels:
[1] = Oxygen singlet production by Singlet Oxygen Sensor Green assay; conditions: for ^1O2 production: compound 25 μM, after white light irradiation 79.2 J cm^−2
Protocol: The production of singlet oxygen by the different amino-based compounds in solution was determined as follows: a stock solution of Singlet Oxygen Sensor Green was prepared at 5 mM in methanol (MeOH). Working solutions of the probe were prepared at 2 mM in 100 mM pH 7.5 Tris buffer and in 100 mM pH 7.5 Tris buffer with 10 mM of Sodium Azide. The compounds were then prepared at a stock concentration of 500 μM and the working solutions were prepared in 100 mM pH 7.5 Tris buffer and in 100 mM pH 7.5 Tris buffer with 10 mM of Sodium Azide. 1 μL of Singlet Oxygen Sensor Green working solutions and 100 μL of compounds solution were mixed to a final volume of 1000 μL (in 100 mM pH 7.5 Tris buffer or in 100 mM pH 7.5 Tris buffer with 10 mM of Sodium Azide). 100 μL of each solution was then added to a 96-well black plate and 100 μL of Deuterium Oxide was added for a final concentration of 1 μM Singlet Oxygen Sensor Green and 25 μM for the different amino-based compounds. The fluorescence was then registered in a spectrofluorometer using excitation/emission of 488/525 nm. After this procedure, the wells were irradiated with a white light source with a total of 79.2 J cm^−2, corresponding to a total irradiation time of 1 h (6 pulses of 10 min) and then, the fluorescence determined using the same excitation/emission pair. As a positive control, Methylene Blue was used at a final concentration of 10 μM. The oxygen singlet production methodology was performed in a dark room.

[2] = test system: HaCaT cells; assay: Cellular photoactivation assay (white light or dark, Alamar Blue); type: cell-based, human
Protocol: A white light LED homemade device prototype has 96 LEDs appropriately arranged on a plate of 13 cm length × 8 cm width, with a distance from the microplate surface of 8 cm. The prototype has an irradiance of 21 W m^−2 and a wavelength range of 408–707 nm (Fig. S4).
For the cellular photoactivation assays, the white light source of 21 W m^−2 was used. Briefly, cells were seed at a density of 4 × 10^4 cells/mL onto 96 –well plates and after 24 h the compounds were added to the plates in different concentrations (6.25–100 μM) and incubated for a period of 4 h at 37 °C in an atmosphere of 5% CO2 and in the presence of DMEM with 2% FBS. After this period, the medium with the compounds was removed and fresh medium (DMEM with 2% FBS without phenol red (DMEM_2% FBS_w/o_PR) was added to cells. Following this procedure, cells were submitted to light irradiation, the selected light source at a height of 8 cm, in a chamber designed to ensure the same light quantity for each well during the treatment. Cells were irradiated for 10 min at an intensity of 50%, at room temperature (making a total energy exposition of 6.6 J cm^−2). The dark treatment was prepared by placing the plates for 10 min in a dark box at room temperature. After this, the 96 well plates were placed in an incubator at 37 °C in an atmosphere of 5% CO2 for 24 h. Then, to determine cell survival the Alamar Blue assay was performed as follows: after the 24 h, 20 μL of a solution of Resazurin (0.15 mg mL^−1 in PBS filtered in 0.22 μm filters) were added to each well (making a total volume of 120 μL per well), and the plates were incubated between 4–6 h (until the development of visible color change from violet to pink). The fluorescence intensity of each well was then determined at 560/590 nm (ex/em) (FlexStation 3 Multi-Mode Microplate Reader).

[3] = Fluorescence quantum yield by the absolute method (integrating sphere); type: physicochemical; conditions: in DMSO
Protocol: Based on the absorbance maxima of the different compounds (Fig. S2), the measurement of the quantum yield (QY) of the synthesized flavylium derivatives was performed using a calibrated Quantaurus-QY stand-alone integrating sphere setup C11347-11 (Hamamatsu Photonics, Hamamatsu, Japan) equipped with an integration sphere, a monochromator, a spectrograph, a 150 W xenon light source and a silicon charge coupled device. Each compound was dissolved in DMSO and diluted to ensure an absorbance of 0.1 from the λmax of excitation forward. Each compound was then irradiated at the corresponding wavelength and the absolute quantum yield determined. The fluorescence spectra was also recorded (Fig. S3). For each compound, four independent experiments were performed.

[4] = Molar absorption coefficient (ɛ) at 630 nm; type: physicochemical
Protocol: The molar extinction coefficient or molar absorption (ɛ), of all synthesized pigments was determined in three different solvents (ethanol, methanol and DMSO). For each pigment, in each solvent, a range of concentrations was prepared and then the spectrum of each solution was read. Finally, the respective absorbances (collected at 630 nm) were represented as a function of concentration and the ɛ value was taken from the slope value of the equation curve.

[5] = test system: HaCaT cells; assay: Reactive oxygen species production (DCF-DA); type: cell-based, human; conditions: 25 μM, 6.6 J cm^−2, versus control cells
Protocol: Cells reactive oxygen species (ROS) production was evaluated following the standard method. Briefly, cells were seed at a density of 4 × 10^4 cells/mL onto 96 well plates and after 24 h the compounds were added at 25 μM (non-toxic concentration) and the same previous procedure for the photoactivation assays was followed. After that, cells were washed twice in Hank’s Buffered Saline Solution (HBSS) and incubated with 100 μL of 50 μM 2′,7′-dichlorodihydrofluorescein diacetate (DCF‐DA) for 30 min in the same previous conditions. For positive control, cells were treated with 100 μM H2O2 for 30 min prior to the addition of DCF-DA. Cells were then washed twice with HBSS and incubated with fresh DMEM medium for 24 h. After this period, the fluorescence intensity at […] (ex/em) was determined in a FlexStation 3 Multi-Mode Microplate Reader.

[6] = MTT cytotoxicity assay, keratinocytes; type: cell-based; conditions: human, HaCaT cells (keratinocytes), dark
Protocol: (§1) The cytotoxicity of amino-based flavylium compounds to HFF-1 (ATCC Number: SCRC-1041) and HaCaT cells was evaluated using the standard MTT assay. Briefly, cells were seeded at a density of 8 × 10^5 and 4 × 10^4 cells/mL, respectively, in 96-well plate and incubated at 37 °C in a 5% CO2 atmosphere. Cells were allowed to grow for 24 h or until reaching monolayer confluency, and serially diluted compound solutions (6.3–100 µM) were added to the plate wells. The stock solutions of each compound were prepared at 200 mM in DMSO, the maximum % of DMSO in the cells was 0.05%. Then, cells were incubated for 48 h at 37 °C, after which the plate wells were washed once with phosphate buffered saline (PBS, Sigma-Aldrich), followed by addition of a 0.45 mg/mL MTT solution to each well. Crystals were allowed to form for 1.5 h. The reaction was stopped by rejecting the medium followed by the addition of 100 µL of DMSO (Sigma-Aldrich). The absorbance was read at 570 nm in FlexStation 3 Multi-Mode Microplate Reader (Molecular Devices, California, USA).

[7] = MTT cytotoxicity assay, fibroblasts; type: cell-based; conditions: human, HFF-1 cells (fibroblasts), HFF-1, proliferation condition, dark
Protocol: as §1

| Compound | ^1O2 production [1] | Dark cytotoxicity to HaCaT cells (in words) ([2]; 4 h incubation, 6.25–100 μM applied, dark) | Photoactivation, dark versus white light (in words) ([2]; 4 h incubation, 6.25–100 μM applied, white light 6.6 J cm^−2) | Quantum yield of fluorescence (Φf), mean ± SD [3] | Molar absorption coefficient ɛ at 630 nm ([4]; DMSO) | Molar absorption coefficient ɛ at 630 nm ([4]; Ethanol) | Molar absorption coefficient ɛ at 630 nm ([4]; Methanol) | ROS production upon white light irradiation (in words) [5] | IC50 at 48 h ([6]; monolayer confluence) | IC50 at 48 h ([6]; proliferation) | IC50 at 48 h [7] | Reduction of cell survival upon light irradiation ([2]; applied concentration 6.25 and 12.5 μΜ) | Cell survival ([2]; either in the presence or absence of light, highest concentration tested) | ^1O2 production yield, times higher (positive control) ([1]; 10 μM, same amount of light irradiation) |
| --- | --- | --- | --- | --- | --- | --- | --- | --- | --- | --- | --- | --- | --- | --- |
| CN(C)c1ccc(/C=C/c2ccc3c(O)cc(O)cc3[o+]2)cc1 [5,7OHst4′NMe2, 5,7-dihydroxy-2-(4′-dimethylaminostyryl)-benzopyrylium] | non-significant enhancement | did not present significant effects | not photoactivated | undetectable | 15,224 M^−1 cm^−1 | 16,422 M^−1 cm^−1 | 15,224 M^−1 cm^−1 | did not modulate the production of ROS | – | – | – | – | – | – |
| CN(C)c1ccc(-c2ccc3c(O)cccc3[o+]2)cc1 [5OH4′NMe2, 5-hydroxy-4′-(dimethylamino)-benzopyrylium] | non-significant enhancement | – | – | undetectable | – | – | – | significantly increased | 47.3 ± 0.3 µM | 14.9 ± 0.1 µM | 47.25 ± 0.21 µM | less than 20% | 40% | – |
| CN(C)c1ccc2nc3ccc(=[N+](C)C)cc-3sc2c1 [methylene blue, Methylene Blue, reference compound] | – | – | – | – | – | – | – | – | – | – | – | – | – | about 5 fold |
